From the NIST ThermoML archive (doi:10.1016/j.jct.2015.05.024)
Numbers after ± are expanded uncertainties.

Experiment: xn = mol fraction of the nth substance listed
Details: 100 kPa, Liquid; for speed of sound: Frequency=5 MHz, Pulse-echo method; for mass density: Vibrating tube method

OCCOCCOCCO [triethylene glycol] + O
Details | mass density [kg/m3] | speed of sound [m/s]
293.15 K, x1 = 0.0107 | 1010.53 ± 0.24 | –
293.15 K, x1 = 0.02047 | 1020.73 ± 0.22 | –
293.15 K, x1 = 0.03972 | 1038.14 ± 0.21 | –
293.15 K, x1 = 0.04979 | 1045.97 ± 0.18 | –
293.15 K, x1 = 0.06996 | 1059.39 ± 0.17 | –
293.15 K, x1 = 0.09424 | 1072.14 ± 0.14 | –
293.15 K, x1 = 0.1481 | 1091 ± 0.14 | –
293.15 K, x1 = 0.1752 | – | 1744.6 ± 1.1
293.15 K, x1 = 0.1869 | – | 1743.5 ± 1.1
293.15 K, x1 = 0.2006 | 1101.53 ± 0.14 | –
293.15 K, x1 = 0.2052 | – | 1740.7 ± 1.1
293.15 K, x1 = 0.2239 | – | 1736.8 ± 1.1
293.15 K, x1 = 0.2502 | 1107.61 ± 0.14 | –
293.15 K, x1 = 0.2513 | – | 1730.1 ± 1.1
293.15 K, x1 = 0.2755 | – | 1723.7 ± 1.1
293.15 K, x1 = 0.2988 | 1111.51 ± 0.15 | –
293.15 K, x1 = 0.3023 | – | 1716.7 ± 1.1
293.15 K, x1 = 0.3492 | 1114.3 ± 0.16 | –
293.15 K, x1 = 0.3754 | – | 1699 ± 1.2
293.15 K, x1 = 0.3925 | 1116.06 ± 0.16 | –
293.15 K, x1 = 0.4338 | – | 1686.6 ± 1.2
293.15 K, x1 = 0.4502 | 1117.81 ± 0.17 | –
293.15 K, x1 = 0.4877 | 1118.7 ± 0.18 | –
293.15 K, x1 = 0.5004 | 1118.97 ± 0.18 | –
293.15 K, x1 = 0.5151 | – | 1671.3 ± 1.2
293.15 K, x1 = 0.5739 | 1120.23 ± 0.2 | –
293.15 K, x1 = 0.58 | 1120.32 ± 0.2 | –
293.15 K, x1 = 0.6233 | – | 1654.9 ± 1.2
293.15 K, x1 = 0.6465 | 1121.14 ± 0.21 | –
293.15 K, x1 = 0.651 | 1121.19 ± 0.21 | –
293.15 K, x1 = 0.7008 | 1121.67 ± 0.23 | –
293.15 K, x1 = 0.7471 | 1122.06 ± 0.24 | –
293.15 K, x1 = 0.7677 | 1122.21 ± 0.24 | –
293.15 K, x1 = 0.7815 | – | 1641.2 ± 1.3
293.15 K, x1 = 0.82 | 1122.57 ± 0.26 | –
293.15 K, x1 = 0.8623 | 1122.83 ± 0.28 | –
293.15 K, x1 = 0.8792 | 1122.93 ± 0.28 | –
293.15 K, x1 = 0.8924 | – | 1634.7 ± 1.4
293.15 K, x1 = 0.8975 | 1123.03 ± 0.29 | –
293.15 K, x1 = 0.9203 | 1123.15 ± 0.3 | –
293.15 K, x1 = 0.9514 | 1123.32 ± 0.31 | –
293.15 K, x1 = 0.9634 | – | 1630.2 ± 1.4
293.15 K, x1 = 0.9692 | 1123.41 ± 0.32 | –
293.15 K, x1 = 1 | 1123.56 ± 0.33 | 1629 ± 1.4
298.15 K, x1 = 0.000655 | – | 1499.7 ± 1.3
298.15 K, x1 = 0.003093 | – | 1510.2 ± 1.3
298.15 K, x1 = 0.008719 | – | 1533.1 ± 1.3
298.15 K, x1 = 0.0107 | 1009.15 ± 0.24 | –
298.15 K, x1 = 0.01513 | – | 1557 ± 1.2
298.15 K, x1 = 0.02047 | 1019.12 ± 0.21 | –
298.15 K, x1 = 0.02053 | – | 1575.4 ± 1.2
298.15 K, x1 = 0.0297 | – | 1603.3 ± 1.2
298.15 K, x1 = 0.03817 | – | 1625.7 ± 1.2
298.15 K, x1 = 0.03972 | 1036.1 ± 0.2 | –
298.15 K, x1 = 0.04526 | – | 1642.1 ± 1.1
298.15 K, x1 = 0.04979 | 1043.71 ± 0.18 | –
298.15 K, x1 = 0.05106 | – | 1654.1 ± 1.1
298.15 K, x1 = 0.05839 | – | 1667.6 ± 1.1
298.15 K, x1 = 0.0674 | – | 1681.9 ± 1.1
298.15 K, x1 = 0.06996 | 1056.75 ± 0.16 | –
298.15 K, x1 = 0.0766 | – | 1694.1 ± 1.1
298.15 K, x1 = 0.08268 | – | 1701 ± 1.1
298.15 K, x1 = 0.08879 | – | 1707 ± 1.1
298.15 K, x1 = 0.09424 | 1069.14 ± 0.14 | –
298.15 K, x1 = 0.09568 | – | 1712.9 ± 1.1
298.15 K, x1 = 0.1024 | – | 1717.7 ± 1.1
298.15 K, x1 = 0.1041 | – | 1718.8 ± 1.1
298.15 K, x1 = 0.1099 | – | 1722.2 ± 1.1
298.15 K, x1 = 0.1152 | – | 1724.8 ± 1.1
298.15 K, x1 = 0.1205 | – | 1727 ± 1.1
298.15 K, x1 = 0.127 | – | 1729.3 ± 1.1
298.15 K, x1 = 0.1291 | – | 1729.9 ± 1.1
298.15 K, x1 = 0.1383 | – | 1731.9 ± 1.1
298.15 K, x1 = 0.1474 | – | 1733.1 ± 1.1
298.15 K, x1 = 0.1481 | 1087.52 ± 0.14 | –
298.15 K, x1 = 0.1587 | – | 1733.7 ± 1.1
298.15 K, x1 = 0.1675 | – | 1733.4 ± 1.1
298.15 K, x1 = 0.1757 | – | 1732.8 ± 1.1
298.15 K, x1 = 0.1834 | – | 1731.9 ± 1.1
298.15 K, x1 = 0.2006 | 1097.87 ± 0.14 | –
298.15 K, x1 = 0.2026 | – | 1728.7 ± 1.1
298.15 K, x1 = 0.221 | – | 1724.7 ± 1.1
298.15 K, x1 = 0.2393 | – | 1720.1 ± 1.1
298.15 K, x1 = 0.2502 | 1103.88 ± 0.14 | –
298.15 K, x1 = 0.2566 | – | 1715.5 ± 1.1
298.15 K, x1 = 0.2906 | – | 1706.3 ± 1.1
298.15 K, x1 = 0.2988 | 1107.76 ± 0.15 | –
298.15 K, x1 = 0.3492 | 1110.52 ± 0.16 | –
298.15 K, x1 = 0.3533 | – | 1690.5 ± 1.2
298.15 K, x1 = 0.3925 | 1112.26 ± 0.16 | –
298.15 K, x1 = 0.427 | – | 1674.4 ± 1.2
298.15 K, x1 = 0.4502 | 1113.99 ± 0.17 | –
298.15 K, x1 = 0.4877 | 1114.87 ± 0.18 | –
298.15 K, x1 = 0.5004 | 1115.13 ± 0.18 | –
298.15 K, x1 = 0.5126 | – | 1658.3 ± 1.2
298.15 K, x1 = 0.5739 | 1116.38 ± 0.2 | –
298.15 K, x1 = 0.58 | 1116.47 ± 0.2 | –
298.15 K, x1 = 0.5907 | – | 1645.7 ± 1.2
298.15 K, x1 = 0.6465 | 1117.3 ± 0.21 | –
298.15 K, x1 = 0.651 | 1117.35 ± 0.21 | –
298.15 K, x1 = 0.7008 | 1117.83 ± 0.22 | –
298.15 K, x1 = 0.7471 | 1118.22 ± 0.24 | –
298.15 K, x1 = 0.7663 | – | 1627.2 ± 1.3
298.15 K, x1 = 0.7677 | 1118.37 ± 0.24 | –
298.15 K, x1 = 0.82 | 1118.72 ± 0.26 | –
298.15 K, x1 = 0.8623 | 1118.97 ± 0.27 | –
298.15 K, x1 = 0.8792 | 1119.06 ± 0.28 | –
298.15 K, x1 = 0.8917 | – | 1620 ± 1.4
298.15 K, x1 = 0.8975 | 1119.16 ± 0.29 | –
298.15 K, x1 = 0.9203 | 1119.28 ± 0.29 | –
298.15 K, x1 = 0.9514 | 1119.44 ± 0.31 | –
298.15 K, x1 = 0.9628 | – | 1615.6 ± 1.4
298.15 K, x1 = 0.9692 | 1119.53 ± 0.31 | –
298.15 K, x1 = 1 | 1119.69 ± 0.33 | 1613.5 ± 1.4
303.15 K, x1 = 0.001004 | – | 1513.5 ± 1.3
303.15 K, x1 = 0.002763 | – | 1520.4 ± 1.2
303.15 K, x1 = 0.007937 | – | 1539.9 ± 1.2
303.15 K, x1 = 0.0107 | 1007.53 ± 0.24 | –
303.15 K, x1 = 0.01123 | – | 1551.5 ± 1.2
303.15 K, x1 = 0.01908 | – | 1577 ± 1.2
303.15 K, x1 = 0.02047 | 1017.29 ± 0.21 | –
303.15 K, x1 = 0.0244 | – | 1592.6 ± 1.2
303.15 K, x1 = 0.03263 | – | 1614.3 ± 1.1
303.15 K, x1 = 0.03972 | 1033.87 ± 0.2 | –
303.15 K, x1 = 0.0428 | – | 1637.2 ± 1.1
303.15 K, x1 = 0.05068 | – | 1652.5 ± 1.1
303.15 K, x1 = 0.05793 | – | 1664.7 ± 1.1
303.15 K, x1 = 0.06625 | – | 1676.8 ± 1.1
303.15 K, x1 = 0.07426 | – | 1686.6 ± 1.1
303.15 K, x1 = 0.08178 | – | 1694.5 ± 1.1
303.15 K, x1 = 0.08886 | – | 1700.8 ± 1.1
303.15 K, x1 = 0.0936 | – | 1704.5 ± 1.1
303.15 K, x1 = 0.09852 | – | 1707.8 ± 1.1
303.15 K, x1 = 0.102 | – | 1709.9 ± 1.1
303.15 K, x1 = 0.1059 | – | 1712.1 ± 1.1
303.15 K, x1 = 0.1101 | – | 1714.1 ± 1.1
303.15 K, x1 = 0.1102 | – | 1714.2 ± 1.1
303.15 K, x1 = 0.1147 | – | 1716 ± 1.1
303.15 K, x1 = 0.1193 | – | 1717.7 ± 1.1
303.15 K, x1 = 0.1248 | – | 1719.3 ± 1.1
303.15 K, x1 = 0.1295 | – | 1720.5 ± 1.1
303.15 K, x1 = 0.1308 | – | 1720.7 ± 1.1
303.15 K, x1 = 0.1337 | – | 1721.3 ± 1.1
303.15 K, x1 = 0.1393 | – | 1722.1 ± 1.1
303.15 K, x1 = 0.1423 | – | 1722.4 ± 1.1
303.15 K, x1 = 0.1457 | – | 1722.6 ± 1.1
303.15 K, x1 = 0.1695 | – | 1722.1 ± 1.1
303.15 K, x1 = 0.1857 | – | 1719.9 ± 1.1
303.15 K, x1 = 0.2042 | – | 1716.3 ± 1.1
303.15 K, x1 = 0.2252 | – | 1711.2 ± 1.1
303.15 K, x1 = 0.2499 | – | 1704.6 ± 1.1
303.15 K, x1 = 0.3027 | – | 1690 ± 1.1
303.15 K, x1 = 0.3394 | – | 1680.6 ± 1.1
303.15 K, x1 = 0.4052 | – | 1665.7 ± 1.2
303.15 K, x1 = 0.4916 | – | 1649 ± 1.2
303.15 K, x1 = 0.6074 | – | 1630 ± 1.2
303.15 K, x1 = 0.7552 | – | 1614 ± 1.3
303.15 K, x1 = 0.8683 | – | 1607.4 ± 1.4
303.15 K, x1 = 0.9616 | – | 1601.7 ± 1.4
303.15 K, x1 = 1 | – | 1599.1 ± 1.4
